EC50 data for 19 compounds are collected here from US20220281886A1, “NATRIURETIC PEPTIDE RECEPTOR A AGONISTS USEFUL FOR THE TREATMENT OF CARDIOMETABOLIC DISEASES, KIDNEY DISEASE AND DIABETES” (Merck Sharp & Dohme Corp., priority 2019, published 2022).

This assay has as its target T1, hNPRA (Homo sapiens, UniProt P16066).
T1 construct: expressed in transfected cells
T1 sequence (P16066 33-1061): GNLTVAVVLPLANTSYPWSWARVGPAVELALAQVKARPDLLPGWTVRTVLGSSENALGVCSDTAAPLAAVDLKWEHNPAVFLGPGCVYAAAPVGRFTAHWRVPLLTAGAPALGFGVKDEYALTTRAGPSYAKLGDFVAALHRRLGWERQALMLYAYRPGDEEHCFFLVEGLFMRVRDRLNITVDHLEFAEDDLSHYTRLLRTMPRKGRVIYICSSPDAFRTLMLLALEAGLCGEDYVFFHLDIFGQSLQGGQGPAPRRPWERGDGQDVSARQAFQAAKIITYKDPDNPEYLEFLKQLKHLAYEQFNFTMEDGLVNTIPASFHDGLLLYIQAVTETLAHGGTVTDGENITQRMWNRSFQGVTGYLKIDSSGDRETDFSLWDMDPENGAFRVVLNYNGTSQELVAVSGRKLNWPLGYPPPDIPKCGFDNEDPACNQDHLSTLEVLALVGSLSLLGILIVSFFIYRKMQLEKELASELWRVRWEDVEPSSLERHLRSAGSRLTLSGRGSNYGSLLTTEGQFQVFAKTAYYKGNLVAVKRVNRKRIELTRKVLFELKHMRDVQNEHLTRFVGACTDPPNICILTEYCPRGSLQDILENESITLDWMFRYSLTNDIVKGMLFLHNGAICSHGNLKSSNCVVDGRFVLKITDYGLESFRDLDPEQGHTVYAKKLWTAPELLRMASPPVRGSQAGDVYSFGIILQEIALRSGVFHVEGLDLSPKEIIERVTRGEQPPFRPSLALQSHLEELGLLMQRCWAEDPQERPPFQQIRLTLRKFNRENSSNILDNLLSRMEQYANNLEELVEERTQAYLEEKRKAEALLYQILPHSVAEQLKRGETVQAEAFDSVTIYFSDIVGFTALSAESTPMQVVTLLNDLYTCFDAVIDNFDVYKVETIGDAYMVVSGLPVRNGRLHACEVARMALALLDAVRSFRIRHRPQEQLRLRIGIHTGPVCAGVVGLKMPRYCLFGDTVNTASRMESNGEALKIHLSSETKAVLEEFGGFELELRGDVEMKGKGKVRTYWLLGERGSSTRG
Nature of the assay: NPRA Functional Cell Assay (cGMP HTRF). Type of assay: cell-based. Conditions: Human NPRA HEK JumpIn stable cells; cGMP by HTRF after 1 hour at 37° C.; 10-point dose response. Put shortly: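 HEK JumpIn cells stably expressing human, rat or dog NPRA incubated 1 hour at 37° C with compound (10-point titration) in Opti-MEM buffer with 100 uM IBMX and 100 uM RO20. cGMP measured by HTRF against an on-plate calibration curve; EC50 from 4-parameter fit, positive control 10 nM rat-ANP (rat) or 50 nM h-ANP (human, dog).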
Regarding `O=C(N[C@H](CCN1CCC(O)CC1)c1ccc(N2CCOC2=O)cc1)c1ccc2nc3c(cc2c1)C[C@@H](C1(C(F)(F)F)CC1)CC3` [Example 4, (7S)-N-{(1R)-3-(4-hydroxypiperidin-1-yl)-1-[4-(2-oxo-1,3-oxazolidin-3-yl)phenyl]propyl}-7-[1-(trifluoromethyl)cyclopropyl]-5,6,7,8-tetrahydroacridine-2-carboxamide], the EC50 (commonly the concentration needed to bring the measured effect to its halfway point) came to 2220 nM.

`C[Si](C)(C)[C@H]1CCc2nc3ccc(C(=O)N[C@H](CCN4CCC(O)CC4)c4ccc(N5CCOC5=O)cc4)cc3cc2C1` [Example 5, (7S)-N-{(1R)-3-(4-hydroxypiperidin-1-yl)-1-[4-(2-oxo-1,3-oxazolidin-3-yl)phenyl]propyl}-7-(trimethylsilyl)-5,6,7,8-tetrahydroacridine-2-carboxamide] had an EC50 of 1980 nM.

Compound `CC(C)[C@]1(F)CCc2nc3c(F)cc(C(=O)N[C@H](CCN4CCC(O)CC4)c4ccc(N5CCOC5=O)cc4)cc3cc2C1` [Example 6, (7S)-4,7-difluoro-N-{(1R)-3-(4-hydroxypiperidin-1-yl)-1-[4-(2-oxo-1,3-oxazolidin-3-yl)phenyl]propyl}-7-(1-methylethyl)-5,6,7,8-tetrahydroacridine-2-carboxamide] registered a concentration for a half-maximal effect (EC50) of 114 nM.

As for `CC(C)[C@]1(F)CCc2nc3c(F)c(F)c(C(=O)N[C@H](CCN4CCC(O)CC4)c4ccc(N5CCOC5=O)cc4)cc3cc2C1` [Example 7, (7S)-3,4,7-trifluoro-N-{(1R)-3-(4-hydroxypiperidin-1-yl)-1-[4-(2-oxo-1,3-oxazolidin-3-yl)phenyl]propyl}-7-(1-methylethyl)-5,6,7,8-tetrahydroacridine-2-carboxamide], the EC50 turned out to be 251 nM.

`Cc1cc(C(=O)N[C@H](CCN2CCC(O)CC2)c2ccc(N3CCOC3=O)cc2)cc2cc3c(nc12)CCC(C(C)(C)C)C3` (stereo partly drawn) [Example 9, 7-(tert-butyl)-N-((R)-3-(4-hydroxypiperidin-1-yl)-1-(4-(2-oxooxazolidin-3-yl)phenyl)propyl)-4-methyl-5,6,7,8-tetrahydroacridine-2-carboxamide+] yielded a concentration giving a half-maximal response (EC50) of 2550 nM.

`CC(C)[C@]1(F)CCc2nc3c(F)cc(C(=O)N[C@H](CCN4CCC(O)CC4)c4ccc(-c5ccnnc5)nc4)cc3cc2C1` [Example 10, (7S)-4,7-difluoro-N-[(1R)-3-(4-hydroxypiperidin-1-yl)-1-(6-pyridazin-4-ylpyridin-3-yl)propyl]-7-(1-methylethyl)-5,6,7,8-tetrahydroacridine-2-carboxamide] returned an EC50 of 112 nM.

In turn, `CC(C)[C@]1(F)CCc2nc3c(F)cc(C(=O)N[C@H](CCN4CCC(O)CC4(C)C)c4ccc(-c5ccnnc5)nc4)cc3cc2C1` (stereo partly drawn) [Example 11, (7S)-4,7-difluoro-N-[(1R)-3-(4-hydroxy-2,2-dimethylpiperidin-1-yl)-1-(6-pyridazin-4-ylpyridin-3-yl)propyl]-7-(1-methylethyl)-5,6,7,8-tetrahydroacridine-2-carboxamide] displayed an EC50 of 219 nM.

The compound `CC(C)[C@]1(F)CCc2nc3c(F)cc(C(=O)N[C@H](CCN4CCC(C)(O)CC4)c4ccc(-c5ccnnc5)nc4)cc3cc2C1` [Example 12, (7S)-4,7-difluoro-N-[(1R)-3-(4-hydroxy-4-methylpiperidin-1-yl)-1-(6-pyridazin-4-ylpyridin-3-yl)propyl]-7-(1-methylethyl)-5,6,7,8-tetrahydroacridine-2-carboxamide] returned an EC50 of 205 nM.

With `CC(C)[C@]1(F)CCc2nc3c(F)cc(C(=O)N[C@H](CCN4CCC(O)(C(=O)O)CC4)c4ccc(-c5ccnnc5)nc4)cc3cc2C1` [Example 13, 1-[(3R)-3-({[(7S)-4,7-difluoro-7-(1-methylethyl)-5,6,7,8-tetrahydroacridin-2-yl]carbonyl}amino)-3-(6-pyridazin-4-ylpyridin-3-yl)propyl]-4-hydroxypiperidine-4-carboxylic acid], a half-maximal response (EC50) required 855 nM.

In turn, `CC(C)[C@]1(F)CCc2nc3c(F)cc(C(=O)N[C@H](CCN4CC5CC(C4)C5(O)C(F)(F)F)c4ccc(-c5ccnnc5)nc4)cc3cc2C1` (stereo partly drawn) [Example 14, (7S)-4,7-difluoro-N-[(1R)-3-[6-hydroxy-6-(trifluoromethyl)-3-azabicyclo[3.1.1]hept-3-yl]-1-(6-pyridazin-4-ylpyridin-3-yl)propyl]-7-(1-methylethyl)-5,6,7,8-tetrahydroacridine-2-carboxamide] had an EC50 of 2090 nM.

Compound `CC(C)[C@]1(F)CCc2nc3c(F)cc(C(=O)N[C@H](CCN4CCC5(O)CCCCC5C4)c4ccc(-c5ccnnc5)nc4)cc3cc2C1` (stereo partly drawn) [Example 15, (7S)-4,7-difluoro-N-[(1R)-3-(4a-hydroxyoctahydroisoquinolin-2(1H)-yl)-1-(6-pyridazin-4-ylpyridin-3-yl)propyl]-7-(1-methylethyl)-5,6,7,8-tetrahydroacridine-2-carboxamide] gave a 50% effective concentration (EC50) of 257 nM.

As to `CC(C)[C@]1(F)CCc2nc3c(F)cc(C(=O)N[C@H](CCN4CCC5(CCCO5)CC4)c4ccc(-c5ccnnc5)nc4)cc3cc2C1` [Example 16, (7S)-4,7-difluoro-7-(1-methylethyl)-N-[(1R)-3-(1-oxa-8-azaspiro[4.5]dec-8-yl)-1-(6-pyridazin-4-ylpyridin-3-yl)propyl]-5,6,7,8-tetrahydroacridine-2-carboxamide], it took 343 nM to reach a half-maximal effect (EC50).

Compound `CC(C)[C@]1(F)CCc2nc3c(F)cc(C(=O)N[C@H](CCN4CCC5(CCO5)CC4)c4ccc(-c5ccnnc5)nc4)cc3cc2C1` [Example 17, (7S)-4,7-difluoro-7-(1-methylethyl)-N-[(1R)-3-(1-oxa-7-azaspiro[3.5]non-7-yl)-1-(6-pyridazin-4-ylpyridin-3-yl)propyl]-5,6,7,8-tetrahydroacridine-2-carboxamide] gave an EC50 of 217 nM.

Regarding `COC1CCN(CC[C@@H](NC(=O)c2cc(F)c3nc4c(cc3c2)C[C@](F)(C(C)C)CC4)c2ccc(-c3ccnnc3)nc2)CC1` [Example 18, (7S)-4,7-difluoro-N-[(1R)-3-(4-methoxypiperidin-1-yl)-1-(6-pyridazin-4-ylpyridin-3-yl)propyl]-7-(1-methylethyl)-5,6,7,8-tetrahydroacridine-2-carboxamide], the half-maximal effective concentration (EC50) was determined as 147 nM.

`CC(C)[C@]1(F)CCc2nc3c(F)cc(C(=O)N[C@H](CCN4CCC(O)(CO)CC4)c4ccc(-c5ccnnc5)nc4)cc3cc2C1` [Example 19, (7S)-4,7-difluoro-N-[(1R)-3-[4-hydroxy-4-(hydroxymethyl)piperidin-1-yl]-1-(6-pyridazin-4-ylpyridin-3-yl)propyl]-7-(1-methylethyl)-5,6,7,8-tetrahydroacridine-2-carboxamide] had an EC50 of 203 nM.

For `CC(C)[C@]1(F)CCc2nc3c(F)cc(C(=O)N[C@H](CCN4CCC(O)CC4)c4cnc(-c5ccnnc5)c(F)c4)cc3cc2C1` [Example 20, (7S)-4,7-difluoro-N-[(1R)-1-(5-fluoro-6-pyridazin-4-ylpyridin-3-yl)-3-(4-hydroxypiperidin-1-yl)propyl]-7-(1-methylethyl)-5,6,7,8-tetrahydroacridine-2-carboxamide], it took 125 nM to reach a half-maximal effect (EC50).

`CN1CC(NC(=O)c2cccc([C@@H](CCN3CCC[C@H]3CO)NC(=O)c3ccc4nc5c(cc4c3)C[C@@H](C3(C)CC3)CC5)c2)C1` [Example 21, (S)-N-((R)-3-((S)-2-(hydroxymethyl)pyrrolidin-1-yl)-1-(3-((1-methylazetidin-3-yl)carbamoyl)phenyl)propyl)-7-(1-methylcyclopropyl)-5,6,7,8-tetrahydroacridine-2-carboxamide] came in with a half-maximal effective concentration (EC50) of 158 nM.

With `CN1CC(NC(=O)c2cccc([C@@H](CCN3CCC[C@H]3CO)NC(=O)c3ccc4nc5c(cc4c3)C[C@@H](C3(C(F)(F)F)CC3)CC5)c2)C1` [Example 22, (S)-N-((R)-3-((S)-2-(hydroxymethyl)pyrrolidin-1-yl)-1-(3-((1-methylazetidin-3-yl)carbamoyl)phenyl)propyl)-7-(1-(trifluoromethyl)cyclopropyl)-5,6,7,8-tetrahydroacridine-2-carboxamide], the EC50 is 278 nM.

For the compound `CN1CC(NC(=O)c2cccc([C@@H](CCN3CCC[C@H]3CO)NC(=O)c3ccc4nc5c(cc4c3)C[C@@H](C3(C(F)F)CC3)CC5)c2)C1` [Example 23], the EC50 amounted to 405 nM.
